The target of test [1] is T1, Membrane-associated tyrosine- and threonine-specific cdc2-inhibitory kinase (Homo sapiens) (UniProt Q99640).
T1 sequence (whole entry): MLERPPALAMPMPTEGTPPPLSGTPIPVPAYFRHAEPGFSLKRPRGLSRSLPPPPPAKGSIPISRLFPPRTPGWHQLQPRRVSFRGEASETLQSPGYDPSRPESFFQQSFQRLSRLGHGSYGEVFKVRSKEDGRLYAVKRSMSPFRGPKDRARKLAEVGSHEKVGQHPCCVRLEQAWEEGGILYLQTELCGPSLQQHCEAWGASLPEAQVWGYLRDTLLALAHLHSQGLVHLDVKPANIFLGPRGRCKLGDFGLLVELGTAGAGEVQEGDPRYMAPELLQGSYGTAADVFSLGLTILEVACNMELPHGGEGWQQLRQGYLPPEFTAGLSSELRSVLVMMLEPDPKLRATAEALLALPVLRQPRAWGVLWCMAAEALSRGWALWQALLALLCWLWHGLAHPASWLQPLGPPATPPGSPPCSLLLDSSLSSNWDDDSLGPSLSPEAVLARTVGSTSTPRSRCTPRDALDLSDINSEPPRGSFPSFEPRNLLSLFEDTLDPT
Description: Selectivity interaction (KinomeScan (DiscoverX)) EUB0000595a PKMYT1. The following applies: at 10 µM.

In test [2] the target is Cyclin-dependent kinase 5 (Homo sapiens, UniProt Q00535). Description: Selectivity interaction (ActivX KiNativ screen (ex vivo kinase selectivity in human PBMCs)) EUB0001619a CDK5. Conditions: PBMC, at 1 µM. The class given is cell-based.
Chain of Cyclin-dependent kinase 5 (Q00535 whole entry, looked up): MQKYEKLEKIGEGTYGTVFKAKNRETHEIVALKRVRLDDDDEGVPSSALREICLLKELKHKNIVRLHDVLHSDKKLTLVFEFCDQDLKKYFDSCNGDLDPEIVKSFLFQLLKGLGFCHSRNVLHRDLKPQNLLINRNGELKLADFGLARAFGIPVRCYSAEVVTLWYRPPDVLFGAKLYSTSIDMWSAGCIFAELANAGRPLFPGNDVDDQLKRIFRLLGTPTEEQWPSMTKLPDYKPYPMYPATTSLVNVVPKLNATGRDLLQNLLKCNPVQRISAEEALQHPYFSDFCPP
The target in test [3] is Angiopoietin-1 receptor (Homo sapiens) (UniProt Q02763). In words: Selectivity interaction (KinomeScan (DiscoverX)) EUB0000695a TEK. Conditions: at 100 nM.
Test [4] deals with Mitogen-activated protein kinase kinase kinase 14 (Homo sapiens) (UniProt Q99558). In words: Selectivity interaction (KinomeScan (DiscoverX)) EUB0000695a MAP3K14. The following applies: at 100 nM.
Test [5] has as its target SRSF protein kinase 2 (Homo sapiens) (UniProt P78362). Description: Selectivity interaction (KinomeScan (DiscoverX)) EUB0000666a SRPK2. The following applies: at 10 µM.
A further test addresses Ephrin type-A receptor 4 (Homo sapiens, UniProt P54764). In words: Selectivity interaction (SelectScreen profiling (Invitrogen)) EUB0000607a EPHA4. The following applies: at 2 µM.
Test [6] concerns the target T2, SNF-related serine/threonine-protein kinase (Homo sapiens) (UniProt Q9NRH2).
T2 sequence (whole entry): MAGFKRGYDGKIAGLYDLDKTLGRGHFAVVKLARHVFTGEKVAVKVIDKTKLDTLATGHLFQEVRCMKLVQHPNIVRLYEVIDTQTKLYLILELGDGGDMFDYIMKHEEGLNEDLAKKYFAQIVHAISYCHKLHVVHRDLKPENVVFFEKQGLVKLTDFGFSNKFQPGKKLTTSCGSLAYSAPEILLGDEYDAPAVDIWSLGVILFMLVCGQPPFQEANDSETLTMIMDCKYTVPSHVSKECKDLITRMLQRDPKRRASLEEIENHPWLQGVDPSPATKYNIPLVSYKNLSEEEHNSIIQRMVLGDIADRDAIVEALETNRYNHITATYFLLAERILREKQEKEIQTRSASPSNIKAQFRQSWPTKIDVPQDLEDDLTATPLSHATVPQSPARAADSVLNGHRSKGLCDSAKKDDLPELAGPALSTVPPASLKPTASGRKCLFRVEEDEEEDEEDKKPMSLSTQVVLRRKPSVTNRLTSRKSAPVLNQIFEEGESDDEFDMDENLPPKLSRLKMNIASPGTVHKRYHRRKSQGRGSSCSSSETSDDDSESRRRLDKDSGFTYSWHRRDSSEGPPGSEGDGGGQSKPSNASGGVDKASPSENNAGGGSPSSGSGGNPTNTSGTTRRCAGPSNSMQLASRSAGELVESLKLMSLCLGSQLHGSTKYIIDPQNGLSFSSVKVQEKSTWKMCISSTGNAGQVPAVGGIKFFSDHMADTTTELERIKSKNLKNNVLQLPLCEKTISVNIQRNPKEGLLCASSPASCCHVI
Description: Selectivity interaction (ActivX KiNativ screen (kinase selectivity in THP-1 cell lysates)) EUB0000639a SNRK. Conditions: lysate, at 1 µM. The class given is subcellular.

For test [7], the target named is Tyrosine-protein kinase ABL2 (Homo sapiens, UniProt P42684). Description: Selectivity interaction (ActivX KiNativ screen (kinase selectivity in THP-1 cell lysates)) EUB0000639a ABL2. The class given is subcellular. Conditions: lysate, at 0.04 µM.
Chain of Tyrosine-protein kinase ABL2 (P42684 whole entry): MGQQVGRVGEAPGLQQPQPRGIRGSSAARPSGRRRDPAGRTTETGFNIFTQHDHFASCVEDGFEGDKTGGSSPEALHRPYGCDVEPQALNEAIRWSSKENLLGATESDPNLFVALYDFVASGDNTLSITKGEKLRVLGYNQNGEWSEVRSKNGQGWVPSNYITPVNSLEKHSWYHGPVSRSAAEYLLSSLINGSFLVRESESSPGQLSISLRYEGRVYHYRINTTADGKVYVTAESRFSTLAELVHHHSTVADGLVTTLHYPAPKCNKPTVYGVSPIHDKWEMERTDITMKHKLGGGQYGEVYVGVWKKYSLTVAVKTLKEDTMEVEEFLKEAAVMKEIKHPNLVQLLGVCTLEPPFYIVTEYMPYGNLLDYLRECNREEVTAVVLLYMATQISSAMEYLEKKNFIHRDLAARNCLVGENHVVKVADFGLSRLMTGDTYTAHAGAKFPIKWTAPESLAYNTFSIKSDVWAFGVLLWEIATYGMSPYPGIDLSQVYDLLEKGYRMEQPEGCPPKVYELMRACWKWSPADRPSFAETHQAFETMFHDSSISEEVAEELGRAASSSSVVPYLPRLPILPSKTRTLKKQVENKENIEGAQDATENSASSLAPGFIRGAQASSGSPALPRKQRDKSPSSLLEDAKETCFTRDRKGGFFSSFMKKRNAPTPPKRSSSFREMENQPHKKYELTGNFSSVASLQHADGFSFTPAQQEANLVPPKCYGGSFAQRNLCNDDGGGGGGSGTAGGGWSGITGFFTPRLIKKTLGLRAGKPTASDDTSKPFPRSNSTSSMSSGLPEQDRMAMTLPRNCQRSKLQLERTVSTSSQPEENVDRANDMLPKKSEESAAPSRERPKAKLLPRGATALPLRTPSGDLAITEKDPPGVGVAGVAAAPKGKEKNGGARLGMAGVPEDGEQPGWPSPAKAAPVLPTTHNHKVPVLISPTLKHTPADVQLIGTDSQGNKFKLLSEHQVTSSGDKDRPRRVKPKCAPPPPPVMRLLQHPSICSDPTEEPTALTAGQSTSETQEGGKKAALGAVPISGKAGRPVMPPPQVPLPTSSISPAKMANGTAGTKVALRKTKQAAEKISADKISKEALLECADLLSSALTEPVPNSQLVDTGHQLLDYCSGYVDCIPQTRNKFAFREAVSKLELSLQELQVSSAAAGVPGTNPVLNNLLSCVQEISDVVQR
The target in test [8] is Macrophage-stimulating protein receptor (Homo sapiens, UniProt Q04912). Description: Selectivity interaction (KinomeScan (DiscoverX)) EUB0001049a MST1R. The following applies: at 1 µM.
Chain of Macrophage-stimulating protein receptor (Q04912 25-304 limits assumed): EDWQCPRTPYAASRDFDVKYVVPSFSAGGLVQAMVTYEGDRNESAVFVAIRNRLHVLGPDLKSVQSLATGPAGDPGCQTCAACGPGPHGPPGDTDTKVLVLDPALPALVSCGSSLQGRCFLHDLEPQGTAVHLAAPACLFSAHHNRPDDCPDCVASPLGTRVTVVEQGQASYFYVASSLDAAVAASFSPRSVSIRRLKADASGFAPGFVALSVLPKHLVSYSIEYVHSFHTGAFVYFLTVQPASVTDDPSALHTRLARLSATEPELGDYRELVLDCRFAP
Chain of Macrophage-stimulating protein receptor (Q04912 310-1400 limits assumed): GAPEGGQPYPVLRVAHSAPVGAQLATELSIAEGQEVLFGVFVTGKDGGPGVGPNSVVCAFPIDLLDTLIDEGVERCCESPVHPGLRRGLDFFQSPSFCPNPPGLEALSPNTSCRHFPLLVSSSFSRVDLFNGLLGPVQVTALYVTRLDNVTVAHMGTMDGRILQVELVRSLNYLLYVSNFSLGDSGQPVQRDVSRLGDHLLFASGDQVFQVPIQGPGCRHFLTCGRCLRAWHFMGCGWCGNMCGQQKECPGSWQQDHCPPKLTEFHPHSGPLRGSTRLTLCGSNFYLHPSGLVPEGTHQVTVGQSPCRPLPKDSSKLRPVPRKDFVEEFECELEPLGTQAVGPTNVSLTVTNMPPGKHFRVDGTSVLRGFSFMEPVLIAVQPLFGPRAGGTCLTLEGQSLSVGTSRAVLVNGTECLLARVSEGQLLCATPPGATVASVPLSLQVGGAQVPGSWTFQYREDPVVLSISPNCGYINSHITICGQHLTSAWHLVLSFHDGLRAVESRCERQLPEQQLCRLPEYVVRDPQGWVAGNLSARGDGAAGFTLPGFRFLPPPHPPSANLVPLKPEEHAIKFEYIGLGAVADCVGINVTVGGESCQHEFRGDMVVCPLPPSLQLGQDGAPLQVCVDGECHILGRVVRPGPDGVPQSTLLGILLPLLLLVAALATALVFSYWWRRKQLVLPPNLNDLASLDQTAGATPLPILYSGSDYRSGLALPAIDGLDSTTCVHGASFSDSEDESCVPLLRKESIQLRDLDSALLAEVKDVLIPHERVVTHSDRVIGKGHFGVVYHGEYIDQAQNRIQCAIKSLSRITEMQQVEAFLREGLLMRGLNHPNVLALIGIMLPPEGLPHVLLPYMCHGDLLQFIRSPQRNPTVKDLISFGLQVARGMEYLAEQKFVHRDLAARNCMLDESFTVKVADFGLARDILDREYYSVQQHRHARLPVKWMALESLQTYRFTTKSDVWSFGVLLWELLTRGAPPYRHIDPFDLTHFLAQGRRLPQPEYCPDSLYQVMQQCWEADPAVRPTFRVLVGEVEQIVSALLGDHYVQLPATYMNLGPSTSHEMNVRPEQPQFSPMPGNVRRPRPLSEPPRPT
A further test addresses Mu-type opioid receptor (Homo sapiens, UniProt P35372). In words: Selectivity interaction (Panel of kinases, GPCRs, ion channels and transporters (enzymatic assay)) EUB0000223bCl OPRM1.
In test [9] the target is Histone-lysine N-methyltransferase KMT5B (Homo sapiens) (UniProt Q4FZB7). Description: Selectivity interaction (Transferase panel (protein, RNA, and DNA methyltransferases. and EP300 (acetyltransferase))) EUB0000270b SUV420H1.
Chain of Histone-lysine N-methyltransferase KMT5B (Homo sapiens) (Q4FZB7 whole entry, looked up): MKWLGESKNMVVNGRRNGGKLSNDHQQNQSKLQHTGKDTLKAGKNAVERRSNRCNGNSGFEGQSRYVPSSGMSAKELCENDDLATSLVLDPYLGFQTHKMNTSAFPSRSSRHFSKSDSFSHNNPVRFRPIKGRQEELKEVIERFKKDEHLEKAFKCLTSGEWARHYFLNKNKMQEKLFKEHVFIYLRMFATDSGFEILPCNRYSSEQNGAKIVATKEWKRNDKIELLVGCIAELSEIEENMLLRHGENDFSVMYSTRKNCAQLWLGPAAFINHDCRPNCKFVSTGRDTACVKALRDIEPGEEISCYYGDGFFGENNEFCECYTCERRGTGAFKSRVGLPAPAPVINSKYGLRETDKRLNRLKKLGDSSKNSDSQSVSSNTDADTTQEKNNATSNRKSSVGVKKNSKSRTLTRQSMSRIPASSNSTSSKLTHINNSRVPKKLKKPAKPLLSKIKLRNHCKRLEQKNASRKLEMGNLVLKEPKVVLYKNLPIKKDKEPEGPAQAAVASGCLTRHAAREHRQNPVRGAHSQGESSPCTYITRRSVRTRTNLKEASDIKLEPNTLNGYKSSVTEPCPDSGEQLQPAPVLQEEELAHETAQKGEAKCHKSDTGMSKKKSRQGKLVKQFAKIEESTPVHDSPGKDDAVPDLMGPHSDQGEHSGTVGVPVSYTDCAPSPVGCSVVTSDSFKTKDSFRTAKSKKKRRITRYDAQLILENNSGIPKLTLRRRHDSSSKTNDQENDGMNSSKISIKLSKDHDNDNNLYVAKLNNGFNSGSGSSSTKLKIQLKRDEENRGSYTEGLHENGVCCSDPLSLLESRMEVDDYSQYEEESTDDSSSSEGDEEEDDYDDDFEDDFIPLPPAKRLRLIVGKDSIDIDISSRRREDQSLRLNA
The target in test [10] is Serine/threonine-protein kinase 33 (Homo sapiens) (UniProt Q9BYT3). Description: Selectivity interaction (KinomeScan (DiscoverX)) EUB0000092b STK33. The following applies: at 10 µM.
Test [11] deals with T3, Aurora kinase A (Homo sapiens) (UniProt O14965).
T3 sequence (whole entry): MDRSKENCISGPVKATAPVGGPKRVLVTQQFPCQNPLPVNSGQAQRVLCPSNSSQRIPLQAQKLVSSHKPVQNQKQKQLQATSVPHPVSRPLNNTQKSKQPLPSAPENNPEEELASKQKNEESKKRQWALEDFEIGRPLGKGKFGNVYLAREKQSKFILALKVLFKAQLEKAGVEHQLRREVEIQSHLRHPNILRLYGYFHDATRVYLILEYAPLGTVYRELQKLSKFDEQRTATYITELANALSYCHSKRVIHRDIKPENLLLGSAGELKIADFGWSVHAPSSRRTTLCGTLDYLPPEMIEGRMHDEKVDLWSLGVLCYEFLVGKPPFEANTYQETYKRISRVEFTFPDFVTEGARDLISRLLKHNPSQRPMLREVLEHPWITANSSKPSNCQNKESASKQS
In words: Selectivity interaction (Kinase panel (DSF assay)) EUB0001558a STK6. Background: Differential scanning fluorimetry follows unfolding on heating by fluorescence.

For test [12], the target named is RAC-beta serine/threonine-protein kinase (Homo sapiens) (UniProt P31751). Description: Selectivity interaction (KinomeScan (DiscoverX)) EUB0001079a AKT2. The following applies: at 1 µM.
In test [13] the target is Tyrosine-protein kinase BTK (Homo sapiens, UniProt Q06187). Description: Selectivity interaction (Millipore kinase profiler) EUB0000124b BTK. The following applies: at 10 µM.
Test [14] concerns the target Tyrosine-protein kinase receptor UFO (Homo sapiens) (UniProt P30530). Description: Selectivity interaction (Millipore kinase profiler) EUB0000124b AXL. Conditions: at 10 µM.

The record followed here is ChEMBL document CHEMBL5465560, “Selectivity Literature for EUbOPEN Chemogenomic Library” (2024).

Chain of Mu-type opioid receptor (P35372 whole entry): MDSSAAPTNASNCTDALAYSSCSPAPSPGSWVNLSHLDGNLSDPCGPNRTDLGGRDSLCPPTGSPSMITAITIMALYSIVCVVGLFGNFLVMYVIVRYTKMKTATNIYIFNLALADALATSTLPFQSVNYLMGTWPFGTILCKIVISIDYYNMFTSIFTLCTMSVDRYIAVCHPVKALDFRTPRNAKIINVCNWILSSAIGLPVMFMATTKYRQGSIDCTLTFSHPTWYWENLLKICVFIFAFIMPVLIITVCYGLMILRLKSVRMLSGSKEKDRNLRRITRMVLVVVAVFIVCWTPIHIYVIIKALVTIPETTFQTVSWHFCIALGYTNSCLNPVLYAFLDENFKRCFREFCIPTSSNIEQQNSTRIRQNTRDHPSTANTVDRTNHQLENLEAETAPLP
Chain of SRSF protein kinase 2 (Homo sapiens) (P78362 whole entry, looked up): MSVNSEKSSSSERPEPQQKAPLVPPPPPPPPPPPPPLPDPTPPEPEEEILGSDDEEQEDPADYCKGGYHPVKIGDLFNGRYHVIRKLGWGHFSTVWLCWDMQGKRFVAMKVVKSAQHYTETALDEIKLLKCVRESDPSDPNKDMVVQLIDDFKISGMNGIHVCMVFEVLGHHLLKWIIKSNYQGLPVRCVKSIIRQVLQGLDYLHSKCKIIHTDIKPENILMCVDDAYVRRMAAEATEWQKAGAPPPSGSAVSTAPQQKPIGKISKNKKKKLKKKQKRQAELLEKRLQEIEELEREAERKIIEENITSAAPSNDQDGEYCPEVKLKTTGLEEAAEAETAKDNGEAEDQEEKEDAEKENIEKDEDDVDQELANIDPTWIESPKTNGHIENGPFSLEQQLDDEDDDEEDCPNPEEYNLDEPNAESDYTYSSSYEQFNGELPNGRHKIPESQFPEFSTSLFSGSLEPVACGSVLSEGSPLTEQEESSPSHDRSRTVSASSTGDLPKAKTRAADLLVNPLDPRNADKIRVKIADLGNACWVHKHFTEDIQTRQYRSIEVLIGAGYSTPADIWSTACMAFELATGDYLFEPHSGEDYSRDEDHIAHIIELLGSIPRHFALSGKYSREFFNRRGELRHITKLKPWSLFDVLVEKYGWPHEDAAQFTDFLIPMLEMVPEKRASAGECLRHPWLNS

On to `COCC(=O)NC/C=C/c1ccc2ncnc(Nc3ccc(Oc4ccc(C)nc4)c(C)c3)c2c1` [CP-724714], for which the % of control in test [1] was found to be 100%.

Take `N#Cc1cccc(-c2c[nH]c3ncnc(N4CCOCC4)c23)c1`: in test [2], the % of inhibition was -9%.

Regarding `Cc1cc(F)c(C(=O)Nc2cccc(-c3nncn3C(C)C)n2)cc1-n1cnc(C2CC2)c1`, the % of control was 100% in [3] and 36% in test [4].

The molecule `O=C(NOC[C@H](O)CO)c1ccc(F)c(F)c1Nc1ccc(I)cc1F` came in with a % of control in test [5] of 100%.

As for `CNC(=O)Nc1ccc(-c2nc(N3CC4CCC(C3)O4)c3cnn(C4CCC5(CC4)OCCO5)c3n2)cc1`, at Ephrin type-A receptor 4, the % of inhibition was -1%.

With `CC[C@@H]1[C@H](F)C(=O)N[C@@H]1COc1nccc2cc(C(N)=O)c(OC)cc12` [ZIMLOVISERTIB], the % of inhibition was 2.6% in test [6] and -16.4% in [7].

For the molecule `COc1cc(Nc2nc(C)cc(-c3cnn4nc(OC)ccc34)n2)cc(C(F)(F)F)c1`, the % of control in test [8] was 94%.

On to `COc1cc(C(=O)N2CC[C@@H](O)[C@@H](N)C2)cc2nc(-c3cc4ccccc4n3CC3CC3)n(C)c12`, for which the pXC50 on Mu-type opioid receptor was below 4 M.

Turning to `Cc1cc(CN)cc(C)c1-c1ncn(C)c1-c1cncn1C`, the % activity in [9] (at 1 µM) is above 90%; in test [9] (at 10 µM) it was above 80%.

In [10], `CCC(=O)N1CCN(c2ccc(-n3c(=O)ccc4cnc5ccc(-c6cnc7ccccc7c6)cc5c43)cc2C(F)(F)F)CC1` showed a % of control of 90%.

`CC(C)(O)[C@H](F)CN1Cc2cc(NC(=O)c3cnn4cccnc34)c(N3CCOCC3)cc2C1=O` came in with a dTM in test [11] of 3.3 K.

On to `Nc1cnc(N2CCc3cc(S(=O)(=O)Nc4c(F)cc(Cl)cc4F)cc(N4CCCC4=O)c32)nc1` [TP-020n], for which the % of control in test [12] turned out to be 100%.

Turning to `CC(=O)Nc1cccc(-n2c(=O)n(C3CC3)c(=O)c3c(Nc4ccc(I)cc4F)n(C)c(=O)c(C)c32)c1`, the % of control in test [13] came out at 104%; in [14], 114%.
